One compound from patent publication US7888042B2, “Methods for identifying insulin mimetics” (Ohio University, priority 2005, dated 2011) can be followed below.

In assay [1] the test system is PI-3 kinase. Nature of the assay: PI-3 kinase activity, radioactive TLC method. In kind it is cell-based. Particulars: CHO-IR cells. On the procedure:
(§1) (A) Glucose transport was measured by determining [^3H]-2-deoxyglucose uptake stimulated by either insulin or α-PGG in 3T3-L1 cells in the presence or absence of HNMPA-(AM)3, an inhibitor of IR tyrosine kinase activity (24); wortmannin, an inhibitor of PI 3-kinase (25), or cytochalasin B, an inhibitor of GLUT4 (26), (n=4, mean±SD). (B) Cells were induced by 20 or 40 μM α-PGG or 100 nM insulin for 15 min. Cell lysates were separated by PAGE and analyzed for phosphorylation of IR (in CHO-IR cells) or Akt (in adipocytes) using antibodies specific to the target proteins. (C) Cells were treated with α-PGG and insulin in a fashion similar to (B) and assayed for their respective PI-3 kinase activity with a radioactive TLC method (27). (D) In similar experiments, intact cells were analyzed by confocal microscopy for translocation of GLUT4 using anti-GLUT4 antibodies.
(§2) Protein phosphorylation/activation and GLUT4 translocation. To investigate signal transduction induced by α-PGG, proteins from 3T3-L1 adipocytes or CHO-IR cells (23), which were treated with α-PGG or insulin for 15 min, were isolated, separated by PAGE, blotted on nylon membranes, and analyzed by Western blotting with antibodies against either IR or Akt. […]

Assay [2] relates to ob/ob mice. Description: Plasma insulin in ob/ob mice, ip injection. Particulars: single ip injection 20 mg/kg. The assay is classed as in vivo. On the procedure: Either 6-8 week old male db/db mice or 8-12 week old male ob/ob mice were treated with aqueous solutions of α-PGG by either oral delivery (˜10 μL, A & B) or ip injection (˜50 μL, C, & D). (n=8-10, mean±SD, one-way ANOVA). α-PGG (●); vehicle (∘). α-PGG (20 mg/kg) was orally delivered without glucose to fasting db/db mice (A *, P<0.02; **, P<0.01; ***, P<0.001) or with glucose (0.4 g/kg body weight) to fasting ob/ob mice (B, glucose tolerance test). α-PGG (20 mg/kg) was ip injected into ob/ob mice on day 0 and day 4 (C). A single ip injection (20 mg/kg) of α-PGG was administered to ob/ob mice (D). Glucose (A, B, C) or insulin (D) was determined from sera or plasma isolated from tail vein blood. Animal studies. Genetically diabetic db/db mice or obese ob/ob mice were purchased from Jackson Lab. Male mice of 2-3 months of age were used. Unless otherwise stated, 10 mice (N=10) were used per group. α-PGG was either orally administered or intraperitoneally (ip) injected in the form of an aqueous solution at 20 mg/kg body weight with a 1-cc sterile plastic syringe. At different times after the α-PGG administration, blood or plasma was collected from the tail vein for measurement of glucose and insulin concentrations using commercial kits. Vehicle (aqueous solution) treated mice were used as controls and were statistically compared with the α-PGG treated mice. […]

Assay [3] deals with ob/ob mice. Nature of the assay: Glucose tolerance test in ob/ob mice, oral dose. In kind it is in vivo. On the procedure: Either 6-8 week old male db/db mice or 8-12 week old male ob/ob mice were treated with aqueous solutions of α-PGG by either oral delivery (˜10 μL, A & B) or ip injection (˜50 μL, C, & D). (n=8-10, mean±SD, one-way ANOVA). α-PGG (●); vehicle (∘). α-PGG (20 mg/kg) was orally delivered without glucose to fasting db/db mice (A *, P<0.02; **, P<0.01; ***, P<0.001) or with glucose (0.4 g/kg body weight) to fasting ob/ob mice (B, glucose tolerance test). α-PGG (20 mg/kg) was ip injected into ob/ob mice on day 0 and day 4 (C). A single ip injection (20 mg/kg) of α-PGG was administered to ob/ob mice (D). Glucose (A, B, C) or insulin (D) was determined from sera or plasma isolated from tail vein blood. Animal studies. Genetically diabetic db/db mice or obese ob/ob mice were purchased from Jackson Lab. Male mice of 2-3 months of age were used. Unless otherwise stated, 10 mice (N=10) were used per group. α-PGG was either orally administered or intraperitoneally (ip) injected in the form of an aqueous solution at 20 mg/kg body weight with a 1-cc sterile plastic syringe. At different times after the α-PGG administration, blood or plasma was collected from the tail vein for measurement of glucose and insulin concentrations using commercial kits. Vehicle (aqueous solution) treated mice were used as controls and were statistically compared with the α-PGG treated mice. All animal studies were conducted in accord with the Ohio University guidelines for the use and care of laboratory animals.

Assay [4] relates to Akt. Description: Akt phosphorylation, Western blot. The assay is classed as cell-based. The conditions noted are these: 3T3-L1 adipocytes, 20 or 40 μM, 15 min. On the procedure:
as §1, §2
On the technique in general: Immunoblotting shows a protein as a band on a membrane.

Assay [5] has as its system GLUT4. Nature of the assay: GLUT4 translocation, confocal microscopy. The assay is classed as cell-based. Particulars: adipocytes, 37° C., 15 min. On the procedure:
as §1, §2

In assay [6] the target is T1, α-subunit of IR (Mus musculus, UniProt P15208).
T1 construct: endogenous in cells; host or cells: 3T3-L1 adipocytes (ATCC)
T1 sequence (P15208 28-748 limits assumed): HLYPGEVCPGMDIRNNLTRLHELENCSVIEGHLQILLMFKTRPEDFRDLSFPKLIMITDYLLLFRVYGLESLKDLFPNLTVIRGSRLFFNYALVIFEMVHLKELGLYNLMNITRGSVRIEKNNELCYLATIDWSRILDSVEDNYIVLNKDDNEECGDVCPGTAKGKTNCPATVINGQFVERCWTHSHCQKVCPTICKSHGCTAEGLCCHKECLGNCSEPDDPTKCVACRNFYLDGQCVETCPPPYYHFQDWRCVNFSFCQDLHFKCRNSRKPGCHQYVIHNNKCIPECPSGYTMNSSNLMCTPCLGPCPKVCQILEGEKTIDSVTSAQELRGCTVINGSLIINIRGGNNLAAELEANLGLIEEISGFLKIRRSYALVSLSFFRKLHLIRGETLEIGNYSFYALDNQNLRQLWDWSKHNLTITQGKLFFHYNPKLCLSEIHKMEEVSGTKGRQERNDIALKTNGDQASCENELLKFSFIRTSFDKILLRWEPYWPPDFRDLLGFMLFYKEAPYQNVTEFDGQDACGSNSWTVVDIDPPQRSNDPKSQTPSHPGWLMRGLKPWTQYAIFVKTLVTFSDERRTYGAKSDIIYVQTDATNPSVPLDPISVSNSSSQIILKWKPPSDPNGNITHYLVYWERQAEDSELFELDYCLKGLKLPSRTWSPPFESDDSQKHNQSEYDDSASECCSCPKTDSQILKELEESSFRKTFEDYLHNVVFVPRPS
T1 sequence (P15208 753-1372 partner limits assumed): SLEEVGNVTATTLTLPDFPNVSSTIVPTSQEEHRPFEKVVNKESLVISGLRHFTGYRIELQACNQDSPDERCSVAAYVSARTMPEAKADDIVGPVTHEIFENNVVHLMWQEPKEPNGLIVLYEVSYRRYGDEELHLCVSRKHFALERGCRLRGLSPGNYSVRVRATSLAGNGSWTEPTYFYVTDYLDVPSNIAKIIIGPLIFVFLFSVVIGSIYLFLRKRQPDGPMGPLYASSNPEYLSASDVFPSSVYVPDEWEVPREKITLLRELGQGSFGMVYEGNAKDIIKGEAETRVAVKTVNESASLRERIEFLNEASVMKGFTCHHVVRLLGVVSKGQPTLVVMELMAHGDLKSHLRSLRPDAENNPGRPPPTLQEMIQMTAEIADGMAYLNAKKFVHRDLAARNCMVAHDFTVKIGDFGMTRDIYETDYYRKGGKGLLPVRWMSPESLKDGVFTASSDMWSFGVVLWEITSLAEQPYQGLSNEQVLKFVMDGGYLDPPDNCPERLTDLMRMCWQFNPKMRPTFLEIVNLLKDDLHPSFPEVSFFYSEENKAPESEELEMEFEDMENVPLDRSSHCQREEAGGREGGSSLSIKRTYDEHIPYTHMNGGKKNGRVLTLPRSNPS
Nature of the assay: Cross-linking with Sulfo-SANPAH and Western blot with anti-IR α-subunit antibody. The assay is classed as cell-based. The conditions noted are these: adipocytes, 200 μM, Sulfo-SANPAH, UV. On the procedure: (A) α-PGG binds to IR as measured by a SPR (28). Increasing concentrations of α-PGG was injected into the system to interact with the pure IR attached to the gold surface of the biosensor chip. The binding, represented in arbitrary response units, was automatically plotted against α-PGG concentrations to generate the binding curve. (B) Insulin binding to IR in the absence or presence of α-PGG. Increasing amounts of ^125I-labeled insulin were added to WGA-coated wells containing pre-bound IR isolated from CHO-IR cells in the absence of α-PGG or in the presence of 30 μM or 50 μM of α-PGG. After overnight incubation, removal of excessive ligands, and washing, the bound radioactive insulin was measured. (C) Insulin displacement by α-PGG. Fixed amounts of radioactive insulin (1 nM) were added to each of the WGA-coated wells pre-bound with IR. Increasing amounts of α-PGG were added to the wells to displace the ^125I-labeled insulin. […]
For the cross-linking reaction, sulfosuccinimidyl-6-(4′-azido-2′-nitrophenylamino) hexanoate (Sulfo-SANPAH), a photoactive, non-cleavable cross-linker (31, 32) purchased from Pierce was used to cross link β-PGG to plasma membrane proteins that it interacts with. […] Cells were lysed and the total cell protein was isolated and separated on an 8% reducing SDS-PAGE, transferred to a nylon membrane, and analyzed with an anti-IR α-subunit antibody.

Each structure is given as a SMILES string.

Consider `O=C(OC[C@H]1O[C@H](OC(=O)c2cc(O)c(O)c(O)c2)[C@H](OC(=O)c2cc(O)c(O)c(O)c2)[C@@H](OC(=O)c2cc(O)c(O)c(O)c2)[C@@H]1OC(=O)c1cc(O)c(O)c(O)c1)c1cc(O)c(O)c(O)c1` [α-PGG, alpha 1,2,3,4,6-penta-O-galloyl-D-Glucopyranose], for which the PI-3 kinase activity entry in assay [1] is recorded as “activates PI-3 kinase”. In assay [2] (hyperinsulinemic ob/ob mice), the plasma insulin levels entry was “significantly lower”. For the same compound, in assay [2] (ob/ob mice), the “duration of anti-hyperinsulinemic effects” value is “at least 24 hours”. Further, in assay [3] (oral 20 mg/kg), the “duration of blood glucose difference” value was “at least 5 h” and the “largest difference in glucose levels vs control group” value is given as “about 20%”. Further, the glucose tolerance result in assay [3] (single oral dose 20 mg/kg with glucose 0.4 g/kg) is on record as “significantly improved”. Also, in assay [4], the Akt phosphorylation entry is “phosphorylated in 3T3-L1 adipocytes in a dose-dependent fashion”. Besides, in assay [5], the GLUT4 translocation entry was “translocated to the plasma membrane”. Also, the “gel migration of IR α-subunit after cross-linking” value in assay [6] is “Gel retardation of α-subunit of IR”.
